From US20030040534A1, “Enantiomers of N-[[2'-[[(4,5-dimethyl-3-isoxazolyl)amino]sulfonyl]-4-(2-oxazolyl)[1,1'-biphenyl]-2-yl]methyl]-N,3,3-trimethylbutanamide” (priority 2001, published 2003) come the findings set out here.

For data set [1], the target named is T1, human endothelin A receptor (Homo sapiens, UniProt P25101).
T1 construct: expressed in transfected cells; host or cells: CHO-K1 (G-418 selected)
T1 sequence (P25101 21-427): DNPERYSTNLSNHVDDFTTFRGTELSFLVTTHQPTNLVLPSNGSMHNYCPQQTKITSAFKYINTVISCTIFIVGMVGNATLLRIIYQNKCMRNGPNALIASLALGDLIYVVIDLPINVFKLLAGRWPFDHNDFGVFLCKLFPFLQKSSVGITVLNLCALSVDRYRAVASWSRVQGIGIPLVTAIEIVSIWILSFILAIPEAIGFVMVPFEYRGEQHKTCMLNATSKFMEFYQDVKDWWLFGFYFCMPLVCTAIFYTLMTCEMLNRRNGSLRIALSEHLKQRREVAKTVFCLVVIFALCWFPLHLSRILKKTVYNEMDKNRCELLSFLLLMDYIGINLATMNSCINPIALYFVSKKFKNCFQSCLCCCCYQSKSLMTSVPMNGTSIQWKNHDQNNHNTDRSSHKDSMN
The data set is described as follows: In vitro ETA binding, attached cell assay, [125I]-ET-1 competition. Here is the method: The isolated atropisomers of Example 2 were tested for in vitro ETA binding according to the following procedure:
CHO-K1 cells expressing the human endothelin A receptor were cultured in Ham's F12 media (Gibco/BRL, Grand Island, N.Y.) with 10% fetal bovine serum (Hyclone), supplemented with 300 μg/mL Geneticin (G-418 Gibco BRL Products, Grand Island, N.Y.) and maintained at 37° C. with 5% CO2 in a humidified incubator. Forty eight hours prior to assay, the cells were treated with 0.25% trypsin-EDTA and were seeded in Falcon, 96 well tissue culture plates at a density of 1.5×10^4 cells/well (the monolayer should reach 80-90% confluency by the day of assay).
In the attached cell assay, culture media was aspirated from each well and the monolayers were washed with 75 μl of room temperature PBS (Mg^++, Ca^++ free). After the addition of 75 μl of cold binding buffer to each well, the plate was chilled at 4° C. for 3 minutes before the addition of competing drugs and isotope. The binding assay was performed in a total volume of 125 μl consisting of assay buffer, maintained at 4° C. (50 mM Tris, pH 7.4, including 1% BSA, and 2 μM phosphoramidon), and 25 μl of either 500 nM ET-1 (to define nonspecific binding) or competing drugs. The reaction was initiated with the addition of 25 μl of 0.25 nM [^125I]-ET-1 (New England Nuclear). Incubation was carried out with gentle orbital shaking, at 4° C., reaching equilibrium at 4 hours. The reaction was terminated by aspiration of the reaction buffer and two subsequent washes with room temperature PBS (Mg^++, Ca^++ free). The cells were dissociated by the addition of 100 μl of 0.5N NaOH followed by incubation for 40 minutes. Samples were then transferred from the 96 well format into tubes for counting in a Cobra gamma counter (Packard). Data was analyzed with curve fitting software by Sigma plot.
In each assay run that was performed, one sample of each atropisomer as well as one sample of racemate was tested for activity.

Data set [2] is described as follows: In vitro interconversion (racemization) of enantiomeric atropisomers under pseudo-physiological conditions, chiral HPLC. Here is the method: The in vitro interconversion of N-[[2′-[[(4,5-dimethyl-3-isoxazolyl)amino]sulfonyl]-4-(2-oxazolyl)[1,1′-biphenyl]-2-yl]methyl]-N,3,3-trimethylbutanamide enantiomeric atropisomers was investigated using normal phase chiral HPLC with ultraviolet and laser polarimetric detection, under pseudo-physiological conditions, i.e., aqueous medium at 37° C., gastric fluid at 37° C. and human serum at 37° C.

[3] abbreviates: Table 1, 97% pure atropisomers of Example 2, Run 1, CHO-K1 cells expressing human ETA, 4° C., read-out: IC50 (nM) Run 1.
The mark [4] stands for this setting: Table 1, 97% pure atropisomers of Example 2, Run 2, read-out: IC50 (nM) Run 2.
[5] abbreviates: Table 1, 97% pure atropisomers of Example 2, Run 3, read-out: IC50 (nM) Run 3.
The mark [6] stands for this setting: Table 1, 97% pure atropisomers of Example 2, Run 4, read-out: IC50 (nM) Run 4.
Setting [7] is: Table 2, 99.2% pure atropisomers of Example 2, Run 1, read-out: IC50 (nM) Run 1.
Setting [8] is: Table 2, 99.2% pure atropisomers of Example 2, Run 2, read-out: IC50 (nM) Run 2.
Setting [9] is: Table 2, 99.2% pure atropisomers of Example 2, Run 3, read-out: IC50 (nM) Run 3.
Setting [10] is: Table 2, 99.2% pure atropisomers of Example 2, Run 4, read-out: IC50 (nM) Run 4.
Setting [11] is: Table 2, 99.2% pure atropisomers of Example 2, Run 5, read-out: IC50 (nM) Run 5.
Where [12] appears, read: Table 2, 99.2% pure atropisomers of Example 2, Run 6, read-out: IC50 (nM) Run 6.
The mark [13] stands for this setting: Table 2, 99.2% pure atropisomers of Example 2, Run 7, read-out: IC50 (nM) Run 7.
Setting [14] is: Table 2, 99.2% pure atropisomers of Example 2, Run 8, read-out: IC50 (nM) Run 8.
[15] abbreviates: Table 2, 99.2% pure atropisomers of Example 2, Run 9, read-out: IC50 (nM) Run 9.

The IC50 is the concentration that inhibits the measured activity by half. By half-life is commonly meant the time in which the quantity being followed falls by half. Higher therefore signals slow loss.

Where two headings read alike, the source gives them in different places.

On to `Cc1onc(NS(=O)(=O)c2ccccc2-c2ccc(-c3ncco3)cc2CN(C)C(=O)CC(C)(C)C)c1C` (single isomer, unassigned) [97% pure (+) dextrorotatory, N-[[2′-[[(4,5-dimethyl-3-isoxazolyl)amino]sulfonyl]-4-(2-oxazolyl)[1,1′-biphenyl]-2-yl]methyl]-N,3,3-trimethylbutanamide], for which the half-inhibitory concentration (IC50) in data set [1] (setting [3]) was determined as 0.03 nM; in data set [1] (setting [4]), 0.01 nM; in data set [1] (setting [5]) it was 0.01 nM; in data set [1] (setting [6]), 0.01 nM; in data set [1] (setting [7]) it was 0.002 nM; in data set [1] (setting [8]) it was 0.002 nM. Besides, the IC50 in data set [1] (setting [9]) was found to be 0.7 nM; in data set [1] (setting [10]) it was 0.1 nM; in data set [1] (setting [11]), 0.3 nM; in data set [1] (setting [12]) it was 0.38 nM; in data set [1] (setting [13]), 0.34 nM; in data set [1] (setting [14]), 0.38 nM. Also, the IC50 in data set [1] (setting [15]) amounted to 0.41 nM. Also, the “potency compared with the (−) levorotatory atropisomer or the racemate” value in data set [1] (endothelin antagonist, statement in words) is listed as “remarkably higher potency”.

`Cc1onc(NS(=O)(=O)c2ccccc2-c2ccc(-c3ncco3)cc2CN(C)C(=O)CC(C)(C)C)c1C` (racemic) [Racemate, N-[[2′-[[(4,5-dimethyl-3-isoxazolyl)amino]sulfonyl]-4-(2-oxazolyl)[1,1′-biphenyl]-2-yl]methyl]-N,3,3-trimethylbutanamide]: the half-life in data set [2] was 15.8 h; in data set [2] (buffer), around 15 h. For the same compound, the IC50 turned out to be 0.12 nM in data set [1] (IC50 (nM) Run 1, Table 1, 97% pure atropisomers of Example 2, Run 1, CHO-K1 cells expressing human ETA, 4° C.); 0.018 nM in data set [1] (IC50 (nM) Run 1, Table 2, 99.2% pure atropisomers of Example 2, Run 1); 0.24 nM in data set [1] (IC50 (nM) Run 2, Table 1, 97% pure atropisomers of Example 2, Run 2); 0.08 nM in data set [1] (IC50 (nM) Run 2, Table 2, 99.2% pure atropisomers of Example 2, Run 2); 0.21 nM in data set [1] (IC50 (nM) Run 3, Table 1, 97% pure atropisomers of Example 2, Run 3); 0.4 nM in data set [1] (IC50 (nM) Run 3, Table 2, 99.2% pure atropisomers of Example 2, Run 3). For the same compound, the IC50 was 0.1 nM in data set [1] (IC50 (nM) Run 4, Table 1, 97% pure atropisomers of Example 2, Run 4); 0.3 nM in data set [1] (IC50 (nM) Run 4, Table 2, 99.2% pure atropisomers of Example 2, Run 4); 0.2 nM in data set [1] (IC50 (nM) Run 5, Table 2, 99.2% pure atropisomers of Example 2, Run 5); 0.4 nM in data set [1] (IC50 (nM) Run 6, Table 2, 99.2% pure atropisomers of Example 2, Run 6); 0.24 nM in data set [1] (IC50 (nM) Run 7, Table 2, 99.2% pure atropisomers of Example 2, Run 7); 0.16 nM in data set [1] (IC50 (nM) Run 8, Table 2, 99.2% pure atropisomers of Example 2, Run 8). In data set [1] (IC50 (nM) Run 9, Table 2, 99.2% pure atropisomers of Example 2, Run 9), this compound showed an IC50 of 0.27 nM.

In the case of `Cc1onc(NS(=O)(=O)c2ccccc2-c2ccc(-c3ncco3)cc2CN(C)C(=O)CC(C)(C)C)c1C` (single isomer, unassigned) [97% pure (−) levorotatory, N-[[2′-[[(4,5-dimethyl-3-isoxazolyl)amino]sulfonyl]-4-(2-oxazolyl)[1,1′-biphenyl]-2-yl]methyl]-N,3,3-trimethylbutanamide], the IC50 in data set [1] (setting [3]) amounted to 0.41 nM; in data set [1] (setting [4]) it was 0.9 nM; in data set [1] (setting [5]), 0.6 nM; in data set [1] (setting [6]) it was 1.4 nM; in data set [1] (setting [7]) it was 0.1 nM; in data set [1] (setting [8]), 0.65 nM. In addition, the IC50 in data set [1] (setting [9]) was found to be 6 nM; in data set [1] (setting [10]), 5 nM; in data set [1] (setting [11]) it was 7 nM; in data set [1] (setting [12]), 3.7 nM; in data set [1] (setting [13]), 21 nM; in data set [1] (setting [14]), 14 nM. The IC50 in data set [1] (setting [15]) is 19 nM.
